Reference: publication PMC12649549, “Sequence Permutation Generated Lysine and Tryptophan-Rich Antimicrobial Peptides with Enhanced Therapeutic Index” (Antibiotics, 2025)
Read-outs that look alike come from different tables or passages of the source.

Columns and labels:
Gram-positive bacteria = test: Geometric mean MIC and therapeutic index, Gram-positive bacteria; assay type: cell-based; conditions: Gram-positive bacteria
Method in brief: (§1)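 Overnight MH cultures were regrown and diluted to 5 × 10^5 CFU/mL, then exposed to peptides at 0.78–50 µg/mL final in MH or modified LYM broth following CLSI microdilution. MICs were combined into geometric means, and TI was computed as HC10 (human red blood cells) divided by GM.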

S. aureus ATCC 25923 = system: S. aureus ATCC 25923
Method in brief: (§2)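 MICs came from CLSI broth microdilution, with 5 × 10^5 CFU/mL bacteria exposed to peptide at final 0.78–50 µg/mL. Media were MH broth or LYM broth (pH 7.4), the latter also adjusted for salt (NaCl 50–300 mM, MgCl2 0.5–2.5 mM) or acidity (pH 4.5–6.5); triplicate independent experiments.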

S. aureus ATCC 6538 = system: S. aureus ATCC 6538
Method in brief: as §2

[1] = system: A. baumannii 14B0091 (Acinetobacter sp., BCRC number 14B0091)
Method in brief: as §2

[2] = system: A. baumannii 14B0097 (Acinetobacter sp., BCRC number 14B0097)
Method in brief: as §2

[3] = system: A. baumannii 14B00100 (Acinetobacter sp., BCRC number 14B0100)
Method in brief: as §2

[4] = system: Escherichia coli (ATCC 25922)
Method in brief: as §2

Gram-negative bacteria = test: Geometric mean MIC and therapeutic index, Gram-negative bacteria; assay type: cell-based; conditions: Gram-negative bacteria
Method in brief: as §1

[5] = MH broth, MIC >50 µg/mL counted as 100 µg/mL
[6] = LYM broth, 0 mM NaCl, 16 h, 37 °C
[7] = LYM broth, 50 mM NaCl, 16 h, 37 °C
[8] = LYM broth, 100 mM NaCl, 16 h, 37 °C
[9] = LYM broth, 200 mM (NaCl), 16 h, 37 °C
[10] = LYM broth, 300 mM (NaCl), 16 h, 37 °C
[11] = MH broth, 5 × 10^5 CFU/mL, 16 h, 37 °C, repeated three times

Ac-LKWLAKKKKWRKW-NH2 [Peptide W5K06]
12.5 mg/L: MIC (S. aureus ATCC 25923; [7]) | MIC [4, 7] | MIC ([4]; LYM broth, pH 4.5)
25 mg/L: MIC (S. aureus ATCC 25923; [8]) | MIC (S. aureus ATCC 6538; [8]) | MIC [3, 9] | MIC [4, 11]
50 mg/L: MIC (S. aureus ATCC 25923; [9]) | MIC (S. aureus ATCC 25923; [11]) | MIC (S. aureus ATCC 6538; [9]) | MIC (S. aureus ATCC 6538; [11]) | MIC [1, 9] | MIC [1, 11] | MIC [2, 9] | MIC [2, 11] | MIC [3, 11] | MIC [4, 8]
2.5: Therapeutic Index (TI) G− (Gram-negative bacteria; HC10/GM)
3.13 mg/L: MIC (S. aureus ATCC 25923; LYM broth, pH 6.5) | MIC (S. aureus ATCC 6538; LYM broth, 0.5 mM MgCl2) | MIC (S. aureus ATCC 6538; LYM broth, 1.5 mM MgCl2) | MIC [1, 6] | MIC ([1]; LYM broth, 0.5 mM MgCl2) | MIC ([1]; LYM broth, 1.5 mM MgCl2) | MIC ([1]; LYM broth, 2.5 mM MgCl2) | MIC [1, 7] | MIC ([1]; LYM broth, pH 4.5) | MIC ([1]; LYM broth, pH 5.5) | MIC [2, 6] | MIC ([2]; LYM broth, 0.5 mM MgCl2) | MIC ([2]; LYM broth, 1.5 mM MgCl2) | MIC ([2]; LYM broth, 2.5 mM MgCl2) | MIC [2, 7] | MIC ([2]; LYM broth, pH 4.5) | MIC ([2]; LYM broth, pH 5.5) | MIC [3, 6] | MIC ([3]; LYM broth, 0.5 mM MgCl2) | MIC ([3]; LYM broth, 1.5 mM MgCl2) | MIC ([3]; LYM broth, 2.5 mM MgCl2) | MIC [3, 7] | MIC ([3]; LYM broth, pH 4.5) | MIC ([3]; LYM broth, pH 5.5) | MIC ([4]; LYM broth, pH 6.5)
43.5 mg/L: GM G− (geometric mean of the MIC values) (Gram-negative bacteria; [5])
6.25 mg/L: MIC (S. aureus ATCC 25923; [6]) | MIC (S. aureus ATCC 25923; LYM broth, 0.5 mM MgCl2) | MIC (S. aureus ATCC 25923; LYM broth, 1.5 mM MgCl2) | MIC (S. aureus ATCC 25923; LYM broth, 2.5 mM MgCl2) | MIC (S. aureus ATCC 25923; LYM broth, pH 4.5) | MIC (S. aureus ATCC 25923; LYM broth, pH 5.5) | MIC (S. aureus ATCC 6538; [6]) | MIC (S. aureus ATCC 6538; LYM broth, 2.5 mM MgCl2) | MIC (S. aureus ATCC 6538; [7]) | MIC (S. aureus ATCC 6538; LYM broth, pH 4.5) | MIC (S. aureus ATCC 6538; LYM broth, pH 5.5) | MIC (S. aureus ATCC 6538; LYM broth, pH 6.5) | MIC [1, 8] | MIC [2, 8] | MIC [3, 8] | MIC [4, 6] | MIC ([4]; LYM broth, 0.5 mM MgCl2) | MIC ([4]; LYM broth, 1.5 mM MgCl2) | MIC ([4]; LYM broth, 2.5 mM MgCl2) | MIC ([4]; LYM broth, pH 5.5)
1.56 mg/L: MIC ([1]; LYM broth, pH 6.5) | MIC ([2]; LYM broth, pH 6.5) | MIC ([3]; LYM broth, pH 6.5)
75.8 mg/L: GM G+ (geometric mean of the MIC values) (Gram-positive bacteria; [5])
>50 mg/L: MIC (S. aureus ATCC 25923; [10]) | MIC (S. aureus ATCC 6538; [10]) | MIC [1, 10] | MIC [2, 10] | MIC [3, 10] | MIC [4, 9] | MIC [4, 10]
1.4: Therapeutic Index (TI) G+ (Gram-positive bacteria; HC10/GM)
